From US20100137267A1, “FORMULATIONS FOR TREATMENT OF ADIPOSE TISSUE, CUTANEOUS TISSUE AND DISORDERS, AND MUSCULAR TISSUE” (priority 2006, published 2010)
“Also recorded” adds a separate entry of the source.

Key:
[1] = Octanol:Water; cited from earlier work
[2] = test system: cultured human adipocytes; test: In vitro lipolysis assay (glycerol release) in cultured adipocytes; assay type: cell-based; details: for lipolysis after 18 hour incubation: Salmeterol 10^−6 M or 10^−8 M, Budesonide 10^−6 M in combination; for increase in lipolysis: relative to negative control (0.1% DMSO), Isoproterenol 10^−6 M positive control
Method: In the in vitro lipolysis assay, glycerol was detected in cell culture media via a spectrophotometric measurement after chemical oxidation with hydrogen peroxide. Glycerol was measured over a three hour time period. Levels of lipolysis in cultured human adipocytes were tested after exposure to a beta adrenergic agonist alone, a glucocorticosteroid alone, or the combination of the two for one or more preincubation periods as described in more detail below.
Human subcutaneous adipocytes were used in the lipolysis assay. Adipose tissue was harvested from liposuction or lipectomy and pre-adipocytes were isolated as follows. Briefly, fat tissue was minced and incubated at 37° C. in Krebs-Ringer bicarbonate buffer containing 1% bovine serum albumin and 0.1% collagenase in an oxygen-rich shaking chamber (5% CO2; 75 strokes/min) for 1 hour. The suspension was filtered through a 400 μm nylon mesh and centrifuged for 1 min at 100 g. The pre-adipocytes in the supernatant were washed twice with and then plated in 96 well plates at a density of cells/well. The pre-adipocytes were cultured in maintenance medium for seven days as they differentiated into adipocytes.
At −21 hours before the lipolysis assay, medium was removed from each well and replaced with 75 μl of Maintenance Medium containing appropriate drug or DMSO (vehicle) concentrations (see Experimental Design section below). Each test drug or control treatment was applied to 8 wells/group (12 treatment groups per 96-well plate). At −3 hours prior to the lipolysis assay, each well was washed two times with Wash Buffer (200 μl/wash), filled with test or control solutions made up in Assay Buffer (75 μl/well), and then incubated for three hours, i.e., until measurement of glycerol content in the Assay Buffer. For some groups, a drug was only added for the three hour incubation period (see Experimental and Control Groups Below).
The glycerol content of the Assay Buffer from each well following the incubation was used as an index for lipolysis, where an increase in glycerol indicated lipolysis. Glycerol levels were assayed colorimetrically via a commercial glycerol assay kit (Randox Laboratory, United Kingdom) and quantified by comparison to a glycerol serial dilution standard curve (3 μM-200 μM). Glycerol concentrations for each well were normalized to cell density.
In each of the following control or experimental groups n=8 corresponding to the glycerol measurements for 8 wells from a 96-well cell culture plate.

[3] = compared with albuterol 5, a short acting hydrophilic beta adrenergic agonist; cited from earlier work

Compound	Log P [1]	lipolysis after 18 hour incubation ([2]; Isoproterenol 10^−6 M)	increase in lipolysis ([2]; three hour incubation)	lipophilicity relative to albuterol [3]	induction of lipolysis in cultured adipocytes (figure legend) ([2]; three hour incubation)	lipolysis compared with Isoproterenol (positive control) ([2]; three hour incubation, Isoproterenol 10^−6 M, formoterol statement holds for concentrations of 10^−6 M and above)
COc1ccc(C[C@@H](C)NC[C@H](O)c2ccc(O)c(NC=O)c2)cc1 (racemic) [Formoterol, ±N-[2-hydroxy-5-[1-hydroxy-2-[1-(4-methoxyphenyl)propan-2-ylamino]ethyl]phenyl]methanamide]	2-4	–	–	–	–	–
CC(C)NCC(O)c1ccc(O)c(O)c1 (stereo not drawn) [Isoproterenol, isoproterenol]	–	decreased lipolysis	about 2.5 fold	–	–	–
OCc1cc(C(O)CNCCCCCCOCCCCc2ccccc2)ccc1O (racemic) [Salmeterol, ±2-(hydroxymethyl)-4-[1-hydroxy-2-[6-(4-phenylbutoxy)hexylamino]ethyl]-phenol]	–	decreased lipolysis; also recorded: dose-dependent suppression of lipolysis	–	at least 10,000 times	–	–
budesonide	–	slight suppression of lipolysis	up to 1.5 fold	–	dose-dependent induction of lipolysis	lower than that observed for Isoproterenol
